Measured values reported in the CheMixHub viscosity set.

Experiment: xn = mol fraction of the nth substance listed

C1COCO1 + C1CCCCC1
viscosity [mPa·s], 101.3 kPa
Details	x2 = 0.0994	x2 = 0.1978	x2 = 0.3014	x2 = 0.3991	x2 = 0.4961	x2 = 0.5974	x2 = 0.6998	x2 = 0.8012	x2 = 0.8994
298.15 K	0.5886	0.593	0.6047	0.6199	0.6405	0.6642	0.6971	0.7404	0.8026
313.15 K	0.4948	0.4959	0.5024	0.5119	0.5256	0.5441	0.5653	0.5967	0.6392

CCCCCCCCC + C1CCCCC1
viscosity [mPa·s], 101.33 kPa
Details	298.15 K	303.15 K	308.15 K
x2 = 0.106	0.658	0.617	0.576
x2 = 0.1286	0.6708	–	–
x2 = 0.1999	0.664	0.623	0.582
x2 = 0.2414	0.6821	–	–
x2 = 0.2987	0.672	0.632	0.589
x2 = 0.342	0.686	–	–
x2 = 0.3971	0.677	0.633	0.591
x2 = 0.4371	0.7041	–	–
x2 = 0.4952	0.696	0.648	0.602
x2 = 0.5293	0.7089	–	–
x2 = 0.5978	0.708	0.659	0.616
x2 = 0.6059	0.7214	–	–
x2 = 0.683	0.7381	–	–
x2 = 0.6994	0.73	0.679	0.631
x2 = 0.7423	0.7545	–	–
x2 = 0.7989	0.762	0.706	0.658
x2 = 0.8068	0.7761	–	–
x2 = 0.873	0.8053	–	–
x2 = 0.8991	0.805	0.743	0.687
x2 = 0.9395	0.8376	–	–
x2 = 0.9769	0.881	–	–

Cc1cccc(C)n1 + C1CCCCC1
viscosity [mPa·s], 101 kPa
Details	x1 = 0.104	x1 = 0.198	x1 = 0.306	x1 = 0.4003	x1 = 0.503	x1 = 0.6001	x1 = 0.705	x1 = 0.799	x1 = 0.898
303 K	0.727	0.6904	0.67	0.6636	0.6619	0.6624	0.6771	0.6933	0.7297
313 K	0.6341	0.6026	0.5879	0.58	0.5789	0.5888	0.601	0.615	0.6426
323 K	0.5572	0.5372	0.5288	0.5212	0.5181	0.5208	0.5361	0.5491	0.5758

O=S(Cl)Cl + C1CCCCC1
298.15 K, 101 kPa
Details	viscosity [mPa·s]
x1 = 0.272	0.7201
x1 = 0.466	0.6634
x1 = 0.806	0.6183
x1 = 0.937	0.6156

C1COCO1 + C1CCOC1
298.15 K, 101 kPa
Details	viscosity [mPa·s]
x2 = 0.1025	0.5975
x2 = 0.2043	0.5993
x2 = 0.3057	0.5923
x2 = 0.4065	0.5804
x2 = 0.5067	0.5634
x2 = 0.6065	0.5438
x2 = 0.7056	0.5224
x2 = 0.8043	0.501
x2 = 0.9024	0.4802

ClC(Cl)C(Cl)(Cl)Cl + C1COCCO1
303.15 K, 101 kPa
Details	viscosity [mPa·s]
x2 = 0.0967	2.052
x2 = 0.1938	2.133
x2 = 0.2925	2.141
x2 = 0.3925	2.108
x2 = 0.4926	2.011
x2 = 0.5951	1.851
x2 = 0.6928	1.65
x2 = 0.795	1.463
x2 = 0.8962	1.289

COCOC + C1C[C@@H]2[C@H]3CC[C@H](C3)[C@@H]2C1
viscosity [mPa·s], 100 kPa
Details	x1 = 0.1048	x1 = 0.2024	x1 = 0.3042	x1 = 0.4061	x1 = 0.5027	x1 = 0.5936	x1 = 0.7008	x1 = 0.8058	x1 = 0.9096
293.15 K	2.257	1.767	1.398	1.122	0.901	0.749	0.616	–	0.428
298.15 K	2.053	1.606	1.295	1.043	0.845	0.704	0.586	0.45	0.408
303.15 K	1.903	1.483	1.202	0.964	0.797	0.664	0.558	0.433	0.393
308.15 K	1.746	1.408	1.12	0.908	0.737	0.628	0.531	0.421	0.38
313.15 K	1.615	1.3	1.047	0.846	0.716	0.594	0.507	0.402	0.368

CCCCCCCCC + CC1CCCCC1
viscosity [mPa·s], 101 kPa
Details	293.15 K	298.15 K	303.15 K	308.15 K
x2 = 0.0426	0.7162	0.6637	0.6214	–
x2 = 0.1052	–	0.664	0.625	0.585
x2 = 0.1496	0.7103	0.6606	0.6176	–
x2 = 0.198	–	0.66	0.614	0.58
x2 = 0.2805	0.7065	0.6594	0.6151	–
x2 = 0.299	–	0.658	0.616	0.578
x2 = 0.3606	0.7056	0.66	0.6148	–
x2 = 0.4018	–	0.659	0.616	0.577
x2 = 0.4418	0.707	0.6607	0.6168	–
x2 = 0.4978	–	0.659	0.617	0.577
x2 = 0.5953	0.7117	0.6639	0.6225	–
x2 = 0.5982	–	0.661	0.62	0.578
x2 = 0.6794	0.7158	0.6669	0.6292	–
x2 = 0.6991	–	0.662	0.618	0.58
x2 = 0.7579	0.7196	0.6709	0.6339	–
x2 = 0.7995	–	0.665	0.62	0.582
x2 = 0.8388	0.7243	0.6757	0.6383	–
x2 = 0.9012	–	0.671	0.626	0.587
x2 = 0.9078	0.7296	0.6788	0.6428	–

C1COCO1 + CC#N
viscosity [mPa·s], 101 kPa
Details	x2 = 0.167	x2 = 0.3109	x2 = 0.4361	x2 = 0.5461	x2 = 0.6435	x2 = 0.7302	x2 = 0.8081	x2 = 0.8783	x2 = 0.942
298.15 K	0.5233	0.4737	0.436	0.4046	0.3783	0.3591	0.3444	0.338	0.3366
308.15 K	0.4618	0.4235	0.3913	0.3646	0.3419	0.3251	0.3134	0.3077	0.307
318.15 K	0.4132	0.3791	0.3502	0.3263	0.3065	0.291	0.2817	0.278	0.2797

CC(=O)c1ccccc1 + CC#N
308.15 K, 101 kPa
Details	viscosity [mPa·s]
x1 = 0.048	0.34
x1 = 0.1023	0.3845
x1 = 0.1626	0.4361
x1 = 0.2321	0.4959
x1 = 0.3113	0.5746
x1 = 0.4024	0.6736
x1 = 0.5125	0.8002
x1 = 0.6426	0.9514
x1 = 0.8018	1.144
x1 = 0.9135	1.284

C1COCO1 + CC(=O)O
298.15 K, 101 kPa
Details	viscosity [mPa·s]
x1 = 0.0826	1.097
x1 = 0.1685	1.076
x1 = 0.2578	1.042
x1 = 0.3508	0.996
x1 = 0.4477	0.9442
x1 = 0.5487	0.883
x1 = 0.6541	0.8162
x1 = 0.7643	0.7415
x1 = 0.8795	0.6626

CC(=O)c1ccccc1 + CC(=O)O
298.15 K, 101 kPa
Details	viscosity [mPa·s]
x2 = 0.0998	1.741
x2 = 0.2107	1.754
x2 = 0.2935	1.742
x2 = 0.4253	1.703
x2 = 0.4885	1.668
x2 = 0.6003	1.598
x2 = 0.6998	1.524
x2 = 0.8002	1.42
x2 = 0.9013	1.293

ClC(Cl)C(Cl)(Cl)Cl + CC(=O)c1ccccc1
298.15 K, 101 kPa
Details	viscosity [mPa·s]
x2 = 0.1163	2.34
x2 = 0.3295	2.36
x2 = 0.5338	2.26
x2 = 0.7313	2.03
x2 = 0.8974	1.8

C1COCO1 + CC(C)(C)O
303.15 K, 101 kPa
Details	viscosity [mPa·s]
x1 = 0.1001	1.967
x1 = 0.2001	1.468
x1 = 0.3001	1.102
x1 = 0.4001	0.8793
x1 = 0.5001	0.7657
x1 = 0.6001	0.6755
x1 = 0.7001	0.6067
x1 = 0.8001	0.5731
x1 = 0.9001	0.566

CC(=O)c1ccccc1 + CC(C)(C)O
viscosity [mPa·s], 101 kPa
Details	x2 = 0.1188	x2 = 0.2314	x2 = 0.3395	x2 = 0.4286	x2 = 0.545	x2 = 0.6429	x2 = 0.7373	x2 = 0.8283	x2 = 0.9142
298.15 K	2.081	2.456	2.8	3.08	3.42	3.651	3.856	4.034	4.208
303.15 K	1.794	2.055	2.284	2.473	2.712	2.874	3.004	3.127	3.247
308.15 K	1.573	1.743	1.895	2.023	2.185	2.29	2.378	2.468	2.549

CN(C)P(=O)(N(C)C)N(C)C + CC(C)(C)O
303.15 K, 101.3 kPa
Details	viscosity [mPa·s]
x1 = 0.0784	3.704
x1 = 0.103	3.722
x1 = 0.1988	3.624
x1 = 0.2201	3.547
x1 = 0.3076	3.4
x1 = 0.4051	3.263
x1 = 0.4476	3.23
x1 = 0.5093	3.185
x1 = 0.6062	3.118
x1 = 0.7077	3.068
x1 = 0.8008	3.02
x1 = 0.9029	2.973

C=CCN(CC=C)C(=O)C(Cl)Cl + CC(C)=O
viscosity [mPa·s], 101 kPa
Details	x1 = 0.006314	x1 = 0.01189	x1 = 0.01711	x1 = 0.02832	x1 = 0.03651	x1 = 0.04464	x1 = 0.05006	x1 = 0.05495
293.15 K	0.3429	0.3501	0.3617	0.3719	0.3878	0.3997	0.4079	0.4157
298.15 K	0.3335	0.3358	0.3476	0.3589	0.3712	0.3822	0.3905	0.3989
303.15 K	0.3189	0.3227	0.3309	0.3424	0.3542	0.3646	0.3722	0.3793
308.15 K	0.3041	0.3086	0.3185	0.3268	0.3372	0.3478	0.3553	0.3628
313.15 K	0.2944	0.296	0.3075	0.3129	0.3247	0.3335	0.3423	0.3443

ClC(Cl)C(Cl)(Cl)Cl + CC(C)=O
298.15 K, 101 kPa
Details	viscosity [mPa·s]
x2 = 0.1476	1.93
x2 = 0.3178	1.52
x2 = 0.5103	1.12
x2 = 0.7037	0.695
x2 = 0.9068	0.417

CCCCCCCCC + CC(C)CC(C)(C)C
298.15 K, 101 kPa
Details	viscosity [mPa·s]
x2 = 0.07718	0.6409
x2 = 0.2128	0.6118
x2 = 0.3294	0.5969
x2 = 0.4097	0.5806
x2 = 0.5252	0.5564
x2 = 0.6958	0.5351
x2 = 0.7143	0.5219
x2 = 0.8186	0.5071
x2 = 0.8823	0.4985
x2 = 0.9211	0.4877
x2 = 0.9661	0.4829

CC(C)OC(C)C + CC(C)O
viscosity [mPa·s], 100 kPa
Details	x1 = 0.0797	x1 = 0.1607	x1 = 0.2387	x1 = 0.3497	x1 = 0.4359	x1 = 0.5553	x1 = 0.6498	x1 = 0.7351	x1 = 0.848	x1 = 0.9369
293.15 K	1.78	1.32	1.02	0.755	0.635	0.52	0.458	0.418	0.38	0.35
298.15 K	1.55	1.18	0.92	0.68	0.572	0.48	0.43	0.395	0.36	0.332
303.15 K	1.39	1.05	0.84	0.63	0.53	0.45	0.404	0.375	0.344	0.318
308.15 K	1.21	0.94	0.75	0.56	0.48	0.417	0.379	0.356	0.328	0.305
313.15 K	1.05	0.83	0.67	0.51	0.44	0.383	0.356	0.334	0.311	0.29
318.15 K	0.93	0.74	0.6	0.465	0.4	0.354	0.331	0.313	0.293	0.276
323.15 K	0.82	0.647	0.522	0.41	0.361	0.327	0.309	0.295	0.276	0.26
